One may read the Kd as the concentration at which binding is half-saturated.

Numbering of substitutions follows the chain as printed.

We go through three compounds from article PMC3375280 (PLoS ONE, 2012).

For assay [1], the target named is T1, AT1 L112A mutant receptor (Rattus norvegicus, UniProt P25095, L112A).
T1 construct: expressed in transfected cells; host or cells: COS1
T1 sequence (P25095 1-359 L112A): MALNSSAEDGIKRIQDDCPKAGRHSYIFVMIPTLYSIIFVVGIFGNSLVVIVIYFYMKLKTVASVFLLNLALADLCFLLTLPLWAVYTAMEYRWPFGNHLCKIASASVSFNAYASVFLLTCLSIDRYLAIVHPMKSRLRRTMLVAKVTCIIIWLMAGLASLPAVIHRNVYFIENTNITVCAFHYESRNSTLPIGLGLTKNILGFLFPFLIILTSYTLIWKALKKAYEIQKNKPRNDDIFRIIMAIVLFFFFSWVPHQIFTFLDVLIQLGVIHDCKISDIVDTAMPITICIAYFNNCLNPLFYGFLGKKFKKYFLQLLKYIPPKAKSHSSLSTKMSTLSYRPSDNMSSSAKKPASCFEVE
The assay can be described thus: competition binding, L112A mutant. The note with it: for Kd ratio relative to WT (in parentheses): L112A / WT; for Kd: L112A, COS1 membranes, read-out: Binding affinity (Kd). As to the method:
(§1) The Kd and Bmax values of receptor binding were determined by ^125I-[Sar^1, Ile^8] […] Membranes expressing the WT or mutant AT1 receptors were incubated with 100 pM ^125I-[Sar^1, Ile^8] […] The binding reaction was terminated by filtering the incubation mixture through Whatman GF/C glass filters, and the residues were extensively washed further with binding buffer. The bound ligand fraction was determined from the counts per minute (cpm) remaining on the membrane. Binding kinetics values were determined as previously described.

Assay [2] addresses T2, AT1 C76A/Y113C/C289A mutant receptor (Rattus norvegicus, UniProt P25095, C289A/C76A/Y113C).
T2 construct: expressed in transfected cells; host or cells: COS1 cells (membranes)
T2 sequence (P25095 1-359 C76A/Y113C/C289A): T1 sequence (P25095 1-359 L112A) with C76A, A112L, Y113C, C289A
The assay can be described thus: competition binding, C76A/Y113C/C289A mutant. The following applies: for Kd ratio relative to WT (in parentheses): C76A/Y113C/C289A / WT; for Kd: C76A/Y113C/C289A, COS1 membranes, read-out: Binding affinity (Kd). As to the method: as §1

Assay [3] has as its target T3, AT1 F117A mutant receptor (Rattus norvegicus, UniProt P25095, F117A).
T3 construct: expressed in transfected cells; host or cells: COS1
T3 sequence (P25095 1-359 F117A): T1 sequence (P25095 1-359 L112A) with A112L, F117A
In words: competition binding, F117A mutant. The following applies: for Kd ratio relative to WT (in parentheses): F117A / WT; for Kd: F117A, COS1 membranes, read-out: Binding affinity (Kd). As for the experimental part:
as §1

Assay [4] concerns the target T4, AT1 S105A mutant receptor (Rattus norvegicus, UniProt P25095, S105A).
T4 construct: expressed in transfected cells; host or cells: COS1
T4 sequence (P25095 1-359 S105A): T1 sequence (P25095 1-359 L112A) with S105A, A112L
The assay can be described thus: competition binding, S105A mutant. The note with it: for Kd: S105A (S105 in the source), COS1 membranes, read-out: Binding affinity (Kd); for Kd ratio relative to WT (in parentheses): S105A / WT. As for the experimental part:
as §1

The target in assay [5] is T5, AT1 V108A mutant receptor (Rattus norvegicus, UniProt P25095, V108A).
T5 construct: expressed in transfected cells; host or cells: COS1
T5 sequence (P25095 1-359 V108A): T1 sequence (P25095 1-359 L112A) with V108A, A112L
The assay can be described thus: competition binding, V108A mutant. The following applies: for Kd ratio relative to WT (in parentheses): V108A / WT; for Kd: V108A, COS1 membranes, read-out: Binding affinity (Kd). As for the experimental part:
as §1

Assay [6] addresses T6, AT1 A114G mutant receptor (Rattus norvegicus, UniProt P25095, A114G).
T6 construct: expressed in transfected cells; host or cells: COS1
T6 sequence (P25095 1-359 A114G): T1 sequence (P25095 1-359 L112A) with A112L, A114G
The assay can be described thus: competition binding, A114G mutant. The following applies: for Kd ratio relative to WT (in parentheses): A114G / WT; for Kd: A114G, COS1 membranes, read-out: Binding affinity (Kd). As for the experimental part: as §1

For `CCCc1nc(C(C)(C)O)c(C(N)=O)n1Cc1ccc(-c2cc(Cc3ccc(O)cc3)ccc2-c2nnn[nH]2)cc1` [R794847], the “Kd ratio relative to WT (in parentheses)” value in assay [1] is 0.6 fold; in assay [2], 134 fold; in assay [3] it was 1.1 fold; in assay [4], 0.8 fold; in assay [5], 51 fold; in assay [6] it was 3.8 fold. Further, the Kd in assay [1] was 31 ± 5 nM; in assay [2], 6420 ± 2570 nM; in assay [3], 54 ± 19 nM; in assay [4], 37 ± 23 nM; in assay [5], 2450 ± 1310 nM; in assay [6], 183 ± 17 nM.
Regarding `CCCc1nc(C(C)(C)O)c(C(=O)O)n1Cc1ccc(-c2ccccc2-c2nnn[nH]2)cc1` [Olmesartan, olmesartan, reference compound], the “Kd ratio relative to WT (in parentheses)” value in assay [1] was 12 fold; in assay [1] (listed as olmesartan), more than 10 fold; in assay [2] it was 248 fold; in assay [3], 1.1 fold; in assay [5] it was 2.1 fold; in assay [6] it was 1.7 fold. For the same compound, the Kd was 27 ± 7 nM in assay [1]; 570 ± 197 nM in assay [2]; 2.5 ± 1.4 nM in assay [3]; 6.7 ± 3.8 nM in assay [4]; 4.8 ± 2 nM in assay [5]; 4 ± 1.4 nM in assay [6].
In the case of `CCCc1nc(C(C)(C)O)c(C(N)=O)n1Cc1ccc(-c2ccccc2-c2nnn[nH]2)cc1` [R239470], the “Kd ratio relative to WT (in parentheses)” value in assay [1] is 54 fold; in assay [2], 340 fold; in assay [3], 1.9 fold; in assay [4], 4.0 fold; in assay [5] it was 2.0 fold; in assay [6] it was 1.4 fold. In addition, the Kd was found to be 43 ± 12 nM in assay [1]; 272 ± 129 nM in assay [2]; 1.5 ± 0.04 nM in assay [3]; 3.2 ± 2 nM in assay [4]; 1.6 ± 0.8 nM in assay [5]; 1.1 ± 0.1 nM in assay [6].
